Reference: patent publication US20260176289A1, “SMALL MOLECULE INHIBITORS OF KRAS PROTEINS” (Merck Sharp & Dohme LLC, priority 2022, published 2026)
Read-outs that look alike come from different tables or passages of the source.

Assays:
[1] = target: KRAS-G12D (Homo sapiens, UniProt P01116, G12D); experiment: SOS-catalyzed nucleotide exchange assay (Procedure A, TR-FRET), KRAS-G12D; assay type: biochemical; conditions: nucleotide exchange, read-out: KRAS G12D GNE IC50
How it was run: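 Signal ratio (520/495 nm, excitation 340 nm) reports Bodipy-GDP retention on biotinylated RAS after SOS-catalyzed exchange with 3 mM GTP. SOS was 40 nM, except 160 nM for G12V. Room-temperature exchange lasted 60 min (90 min for G12V), following a 60 min compound preincubation.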

[2] = tested on: MKN-1 cells; experiment: Cellular phospho-ERK assay, MKN-1 cells (amplified wild-type KRAS); assay type: cell-based; conditions: Homo sapiens, read-out: MKN1 pERK IC50
How it was run: (§1)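 Inhibition of ERK phosphorylation was determined after treating attached cells with compound for 2 h; top concentration 30 μM, serial 1:3 dilution. Each well's p-ERK:total ERK ratio, read by SureFire Ultra, was fitted with a four-parameter model for IC50.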

[3] = target: KRAS-G12C (C51S/C80L/C118S) (Homo sapiens, UniProt P01116, C118S/C51S/C80L/G12C); experiment: SOS-catalyzed nucleotide exchange assay (Procedure A, TR-FRET), KRAS-G12C; assay type: biochemical; conditions: nucleotide exchange, Procedure A; read-out: KRAS G12C GNE IC50
Sequence of KRAS-G12C (C51S/C80L/C118S) (P01116 with tags, fused parts or gaps isoform P01116-2 G12C/C51S/C80L/C118S): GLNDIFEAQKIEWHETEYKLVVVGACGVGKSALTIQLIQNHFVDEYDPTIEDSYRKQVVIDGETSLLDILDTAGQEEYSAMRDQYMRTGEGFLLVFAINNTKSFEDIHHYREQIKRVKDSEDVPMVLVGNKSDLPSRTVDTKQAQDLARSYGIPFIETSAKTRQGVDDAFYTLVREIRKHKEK
How it was run: (§2)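 TR-FRET 520/495 nm ratio read after SOS-driven exchange of Bodipy-GDP for unlabeled GTP (3 mM) on biotinylated RAS bound to Tb-streptavidin. There was a 60 min compound preincubation, RT. Final RAS/SOS and reaction times: G12C 3 nM/40 nM; WT 1 nM/40 nM; NRAS 1.25 nM/40 nM, each 60 min. G12V was 1.25 nM/160 nM, 90 min.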

[4] = tested on: SW620 cells; experiment: Cellular phospho-ERK assay, SW620 cells (homozygous KRAS-G12V); assay type: cell-based; conditions: Homo sapiens, read-out: SW620 pERK IC50
How it was run: as §1

[5] = tested on: AsPC-1 cells; experiment: Cellular phospho-ERK assay, AsPC-1 cells (homozygous KRAS-G12D); assay type: cell-based; conditions: Homo sapiens, ASPC1, 2 h, read-out: AsPC1 pERK IC50
How it was run: as §1

[6] = tested on: PANC08.13 cells; experiment: Cellular phospho-ERK assay, PANC08.13 cells (homozygous KRAS-G12D); assay type: cell-based; conditions: Homo sapiens, read-out: PANC-08.13 pERK IC50
How it was run: as §1

[7] = target: KRAS-G13D (Homo sapiens, UniProt P01116, G13D); experiment: SOS-catalyzed nucleotide exchange assay (Procedure A, TR-FRET), KRAS-G13D; assay type: biochemical; conditions: nucleotide exchange, Procedure A; read-out: KRAS G13D GNE IC50
Sequence of KRAS-G13D (P01116 with tags, fused parts or gaps isoform P01116-2 G13D): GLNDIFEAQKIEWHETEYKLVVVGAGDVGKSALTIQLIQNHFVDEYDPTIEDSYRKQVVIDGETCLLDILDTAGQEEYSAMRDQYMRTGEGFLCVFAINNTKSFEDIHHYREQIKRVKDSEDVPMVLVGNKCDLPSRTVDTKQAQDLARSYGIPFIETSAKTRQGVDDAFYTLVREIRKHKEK

[8] = target: KRAS-WT (Homo sapiens, UniProt P01116); experiment: SOS-catalyzed nucleotide exchange assay (Procedure A, TR-FRET), KRAS-WT; assay type: biochemical; conditions: nucleotide exchange, read-out: KRAS WT GNE IC50
Sequence of KRAS-WT (P01116 with tags, fused parts or gaps isoform P01116-2): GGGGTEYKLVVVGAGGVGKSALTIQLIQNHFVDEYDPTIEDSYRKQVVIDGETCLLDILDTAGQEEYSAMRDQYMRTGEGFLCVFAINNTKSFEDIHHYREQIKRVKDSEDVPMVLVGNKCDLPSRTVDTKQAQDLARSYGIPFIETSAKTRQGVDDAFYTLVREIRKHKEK
How it was run: as §2

[9] = target: KRAS-G12V (Homo sapiens, UniProt P01116, G12V); experiment: SOS-catalyzed nucleotide exchange assay (Procedure A, TR-FRET), KRAS-G12V; assay type: biochemical; conditions: nucleotide exchange, read-out: KRAS G12V GNE IC50
Sequence of KRAS-G12V (P01116 with tags, fused parts or gaps isoform P01116-2 G12V): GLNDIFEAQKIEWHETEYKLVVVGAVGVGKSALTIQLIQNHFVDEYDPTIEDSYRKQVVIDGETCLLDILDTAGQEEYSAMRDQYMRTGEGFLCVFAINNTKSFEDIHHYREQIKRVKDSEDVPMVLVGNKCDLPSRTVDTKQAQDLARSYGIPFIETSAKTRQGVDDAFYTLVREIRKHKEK
How it was run: as §2

[10] = amplified wild-type KRAS, 2 hours

Sequence of KRAS-G12D (P01116 with tags, fused parts or gaps isoform P01116-2 G12D): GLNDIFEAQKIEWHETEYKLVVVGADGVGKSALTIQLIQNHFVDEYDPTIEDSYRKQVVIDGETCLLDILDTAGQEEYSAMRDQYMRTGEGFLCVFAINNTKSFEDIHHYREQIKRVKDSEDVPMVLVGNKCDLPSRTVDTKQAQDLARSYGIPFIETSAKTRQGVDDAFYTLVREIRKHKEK

| IC50 ([2]; 2 hours compound incubation) [nM] | IC50 ([4]; SW-620, 2 hours compound incubation) [nM] | IC50 ([5]; 2 hours compound incubation) [nM] | IC50 ([6]; PANC-08-13, 2 hours compound incubation) [nM] | SMILES | IC50 [1] [nM] | IC50 [3] [nM] | IC50 [7] [nM] | IC50 [8] [nM] | IC50 [9] [nM] | IC50 [2, 10] [nM] | IC50 ([4]; SW-620, KRAS-G12V, 2 hours) [nM] | IC50 ([6]; PANC-08-13, KRAS-G12D, 2 hours) [nM] | IC50 ([5]; KRAS-G12D, 2 hours) [nM] |
| --- | --- | --- | --- | --- | --- | --- | --- | --- | --- | --- | --- | --- | --- |
| 118 | 253 | 131 | 58.4 | C=C(C)c1c(C)cc2[nH]ncc2c1-c1nccc2c1sc1nc(OC[C@@]34CCCN3C[C@H](F)C4)nc(N3CCOC[C@@](C)(O)C3)c12 [Ex-136, (6S)-4-(2-(((2R, 7aS)-2-fluorotetra-hydro-1H-pyrrol-izin-7a(5H)-yl)meth-oxy)-8-(6-methyl-5-(prop-1-en-2-yl)-1H-indazol-4-yl)pyr-ido[4′,3′:4,5]thieno [2,3-d]pyrimidin-4-yl)-6-methyl-1,4-oxazepan-6-ol] | 21.6 | 39 | 24.8 | 60 | 40.6 | – | – | – | – |
| – | – | – | – | Cc1cc2[nH]ncc2c(-c2nccc3c2sc2nc(OC[C@@]45CCCN4C[C@H](F)C5)nc(N4CCOC[C@@](C)(O)C4)c23)c1Cl [Ex-32, (6S)-4-(8-(5-chloro-6-methyl-1H-indazol-4-yl)-2-(((2R,7aS)-2-fluorotetrahydro-1H-pyrrolizin-7a(5H)-yl)methoxy)pyrido[4′,3′:4,5]thieno[2,3-d]pyrimidin-4-yl)-6-methyl-1,4-oxazepan-6-ol] | 101 | 91.7 | 111 | 202 | 212 | 274 | 222 | 174 | – |
| – | – | – | – | C[C@@]1(O)COCCN(c2nc(OC[C@@]34CCCN3C[C@H](F)C4)nc3sc4c(-c5c(C(F)(F)F)c(Cl)cc6[nH]ncc56)nccc4c23)C1 [Ex-40, (6S)-4-(8-(6-chloro-5-(trifluoromethyl)-1H-indazol-4-yl)-2-(((2R,7aS)-2-fluorotetrahydro-1H-pyrrolizin-7a(5H)-yl)methoxy)pyrido[4′,3′:4,5]thi-eno[2,3-d]pyrimidin-4-yl)-6-methyl-1,4-oxazepan-6-ol] | 61.5 | 34.4 | 52.4 | 138 | 83.4 | 159 | 124 | 114 | 294 |
| – | – | – | – | Cn1c2nc(OC[C@@]34CCCN3C[C@H](F)C4)nc(N3CCOC[C@@](C)(O)C3)c2c2ccnc(-c3ccc(F)c4sc(N)c(C#N)c34)c21 [Ex-16, 2-amino-7-fluoro-4-(2-(((2R,7aS)-2-fluorotetrahydro-1H-pyrrolizin-7a(5H)-yl)methoxy)-4-((S)-6-hydroxy-6-methyl-1,4-oxazepan-4-yl)-9-methyl-9H-pyrido[4′,3′:4,5]pyrrolo[2,3-d]pyrimidin-8-yl)benzo[b]thiophene-3-carbonitrile] | 952 | 1320 | 315 | 765 | 561 | 1770 | 8490 | 5450 | – |
| – | – | – | – | Cc1cc2[nH]ncc2c(-c2nccc3c4c(N5CCOC[C@@](C)(O)C5)nc(OC[C@@]56CCCN5C[C@H](F)C6)nc4n(C)c23)c1C(F)F (single isomer, unassigned) [Ex-10] | 40.3 | 30.1 | 93.8 | 97.7 | 54 | 200 | 337 | 191 | 439 |
| – | – | – | – | Cc1cc2[nH]ncc2c(-c2nccc3c4c(N5CCOC[C@@](C)(O)C5)nc(OC[C@]5(CN(C)C)CC5(F)F)nc4n(C)c23)c1C(F)F (single isomer, unassigned) [Ex-19] | 26.5 | 37.4 | 68.3 | 85.5 | 67.2 | 118 | 214 | 68.2 | 58.5 |
| – | – | – | – | Cc1cc2[nH]ncc2c(-c2nccc3c2sc2nc(OC[C@@]45CCCN4C[C@H](F)C5)nc(N4CCOC[C@@](C)(O)C4)c23)c1C(F)(F)F [Ex-126, (6S)-4-(2-(((2R,7aS)-2-fluorotetrahydro-1H-pyrrolizin-7a(5H)-yl)methoxy)-8-(6-methyl-5-(trifluoromethyl)-1H-indazol-4-yl)pyrido[4′,3′:4,5]thieno[2,3-d]pyrimidin-4-yl)-6-methyl-1,4-oxazepan-6-ol] | 34.9 | 30.7 | 58.6 | 88.3 | 52.8 | 169 | 320 | 85.4 | 271 |
| – | – | – | – | Cc1cc2[nH]ncc2c(-c2nccc3c2sc2nc(OC[C@@]45CCCN4C[C@H](F)C5)nc(N4CCOC[C@@](C)(O)C4)c23)c1C(F)F [Ex-129, (6S)-4-(8-(5-(di-fluoromethyl)-6-methyl-1H-indazol-4-yl)-2-(((2R,7aS)-2-fluorotetrahydro-1H-pyrrolizin-7a(5H)-yl)methoxy)-pyrido[4′,3′:4,5]thieno[2,3-d]pyr-imidin-4-yl)-6-meth-yl-1,4-oxazepan-6-ol] | 56.2 | 50 | 79 | 165 | 85 | 241 | 211 | 144 | 469 |
| – | – | – | – | Cc1cc2[nH]ncc2c(-c2nccc3c2sc2nc(OC[C@@]45CCCN4C[C@H](F)C5)nc(N4CCC[C@@](C)(O)C4)c23)c1C(F)(F)F [Ex-128, (3R)-1-(2-(((2R, 7aS)-2-fluorotetra-hydro-1H-pyrrol-izin-7a(5H)-yl)meth-oxy)-8-(6-methyl-5-(trifluoromethyl)-1H-indazol-4-yl)-pyrido[4′,3′:4,5]thieno[2,3-d]pyr-imidin-4-yl)-3-methylpiperidin-3-ol] | 96.9 | 102 | 204 | 246 | 143 | 214 | – | 242 | 667 |
| – | – | – | – | C#Cc1c(C)cc2[nH]ncc2c1-c1nccc2c1sc1nc(OC[C@@]34CCCN3C[C@H](F)C4)nc(N3CCOC[C@@](C)(O)C3)c12 [Ex-33, (6S)-4-(8-(5-ethynyl-6-methyl-1H-indazol-4-yl)-2-(((2R,7aS)-2-fluorotetrahydro-1H-pyrrolizin-7a(5H)-yl)methoxy)pyrido[4′,3′:4,5]thieno[2,3-d]pyrimidin-4-yl)-6-methyl-1,4-oxazepan-6-ol] | 13.6 | 35.3 | 19.7 | 35.7 | 28.7 | 52.9 | 126 | 60.1 | – |
| – | – | – | – | COc1cc2c3c(N4CCOC[C@@](C)(O)C4)nc(OC[C@@]45CCCN4C[C@H](F)C5)nc3n(C)c2c(-c2c(C(F)(F)F)c(C)cc3[nH]ncc23)n1 [Ex-26, (6S)-4-(2-(((2R,7aS)-2-fluorotetrahydro-1H-pyrrolizin-7a(5H)-yl)methoxy)-6-methoxy-9-methyl-8-(6-methyl-5-(trifluoromethyl)-1H-indazol-4-yl)-9H-pyrido[4′,3′:4,5]pyrrolo[2,3-d]pyrimidin-4-yl)-6-methyl-1,4-oxazepan-6-ol] | 96 | 209 | 94.3 | 189 | 96.3 | 325 | 709 | 170 | – |
| – | – | – | – | Cc1cc2[nH]ncc2c(-c2nccc3c4c(N5CCC[C@@](C)(O)C5)nc(OC[C@@]56CCCN5C[C@H](F)C6)nc4n(C)c23)c1C(F)(F)F (single isomer, unassigned) [Ex-5] | 61.2 | 96.8 | 94.3 | 101 | 80.7 | 127 | – | 188 | 694 |
| – | – | – | – | C#Cc1cccc2cccc(-c3nccc4c3sc3nc(OC[C@@]56CCCN5C[C@H](F)C6)nc(N5CCOC[C@@](C)(O)C5)c34)c12 [Ex-127, (S)-4-(8-(8-ethynyl-naphthalen-1-yl)-2-(((2R,7aS)-2-fluoro-tetrahydro-1H-pyr-rolizin-7a(5H)-yl)-methoxy)pyrido[4′, 3′:4,5]thieno[2,3-d]pyrimidin-4-yl)-6-methyl-1,4-oxaze-pan-6-ol] | 103 | 91.7 | 287 | 233 | 121 | 510 | 483 | 351 | – |
